According to article PMC9797307, “Measurement of Pharmacokinetics and Tissue Distribution of Four Compounds from Nauclea officinalis in Rat Plasma and Tissues through HPLC-MS/MS” (Journal of Analytical Methods in Chemistry, 2022):

Experiment: Stability of QC samples in rat plasma and tissue homogenates under different storage conditions
Type: in vitro ADME
Details: in % (unit assumed)

SMILES: C/C=C1/COC(=O)[C@H]2C(=O)N3CCc4c([nH]c5ccccc45)[C@@H]3C[C@@H]12 [Naucleactonin C]
- Accuracy, −80°C for 30 days (Lung, 8 ng/mL): 99.03 ± 10.49
- Accuracy, Ambient temperature for 4 h (Lung, 140 ng/mL): 102.38 ± 4.12
- Accuracy, Autosampler at 4°C for 8 h (Lung, 140 ng/mL): 94.45 ± 5.92
- Accuracy, Three freeze-thraw cycles (Lung, 140 ng/mL): 93.75 ± 8.53
- Accuracy, −80°C for 30 days (Lung, 140 ng/mL): 92.58 ± 3.60
- Accuracy, Ambient temperature for 4 h (Lung, 2400 ng/mL): 111.37 ± 9.27
- Accuracy, Autosampler at 4°C for 8 h (Lung, 2400 ng/mL): 111.85 ± 9.53
- Accuracy, −80°C for 30 days (Lung, 2400 ng/mL): 111.67 ± 3.39
- Accuracy, Ambient temperature for 4 h (Plasma, 5 ng/mL): 101.95 ± 10.33
- Accuracy, Autosampler at 4°C for 8 h (Plasma, 5 ng/mL): 106.67 ± 10.88
- Accuracy, Three freeze-thraw cycles (Plasma, 5 ng/mL): 91.87 ± 8.63
- Accuracy, −80°C for 30 days (Plasma, 5 ng/mL): 109.57 ± 12.66
- Accuracy, Ambient temperature for 4 h (Plasma, 8 ng/mL): 108.88 ± 1.87
- Accuracy, Autosampler at 4°C for 8 h (Plasma, 8 ng/mL): 105.01 ± 6.32
- Accuracy, Three freeze-thraw cycles (Plasma, 8 ng/mL): 105.88 ± 1.87
- Accuracy, −80°C for 30 days (Plasma, 8 ng/mL): 113.33 ± 5.32
- Accuracy, Ambient temperature for 4 h (Plasma, 140 ng/mL): 87.67 ± 9.20
- Accuracy, Autosampler at 4°C for 8 h (Plasma, 140 ng/mL): 87.88 ± 4.14
- Accuracy, Three freeze-thraw cycles (Plasma, 140 ng/mL): 111.88 ± 1.87
- Accuracy, −80°C for 30 days (Plasma, 140 ng/mL): 111.57 ± 9.60
- Accuracy, Ambient temperature for 4 h (Plasma, 2400 ng/mL): 88.93 ± 6.01
- Accuracy, Autosampler at 4°C for 8 h (Plasma, 2400 ng/mL): 89.25 ± 7.58
- Accuracy, Three freeze-thraw cycles (Plasma, 2400 ng/mL): 89.17 ± 7.49
- Accuracy, −80°C for 30 days (Plasma, 2400 ng/mL): 113.83 ± 7.14
- Accuracy, Ambient temperature for 4 h (Small intestine, 5 ng/mL): 111.90 ± 12.07
- Accuracy, Autosampler at 4°C for 8 h (Small intestine, 5 ng/mL): 111.67 ± 8.14
- Accuracy, Three freeze-thraw cycles (Small intestine, 5 ng/mL): 111.17 ± 8.33
- Accuracy, −80°C for 30 days (Small intestine, 5 ng/mL): 112.67 ± 8.78
- Accuracy, Ambient temperature for 4 h (Small intestine, 8 ng/mL): 103.33 ± 3.39
- Accuracy, Autosampler at 4°C for 8 h (Small intestine, 8 ng/mL): 100.03 ± 11.46
- Accuracy, Three freeze-thraw cycles (Small intestine, 8 ng/mL): 100.60 ± 10.24
- Accuracy, −80°C for 30 days (Small intestine, 8 ng/mL): 104.25 ± 9.49
- Accuracy, Ambient temperature for 4 h (Small intestine, 140 ng/mL): 88.60 ± 9.48
- Accuracy, Autosampler at 4°C for 8 h (Small intestine, 140 ng/mL): 89.80 ± 8.30
- Accuracy, Three freeze-thraw cycles (Small intestine, 140 ng/mL): 87.88 ± 5.57
- Accuracy, −80°C for 30 days (Small intestine, 140 ng/mL): 90.17 ± 7.26
- Accuracy, Ambient temperature for 4 h (Small intestine, 2400 ng/mL): 107.48 ± 8.23
- Accuracy, Autosampler at 4°C for 8 h (Small intestine, 2400 ng/mL): 103.75 ± 6.68
- Accuracy, Three freeze-thraw cycles (Small intestine, 2400 ng/mL): 108.43 ± 8.65
- Accuracy, −80°C for 30 days (Small intestine, 2400 ng/mL): 102.32 ± 8.65
- Accuracy, Ambient temperature for 4 h (Spleen, 5 ng/mL): 110.33 ± 8.71
- Accuracy, Autosampler at 4°C for 8 h (Spleen, 5 ng/mL): 112.92 ± 8.72
- Accuracy, Three freeze-thraw cycles (Spleen, 5 ng/mL): 110.67 ± 8.57
- Accuracy, −80°C for 30 days (Spleen, 5 ng/mL): 109.68 ± 12.57
- Accuracy, Ambient temperature for 4 h (Spleen, 8 ng/mL): 99.28 ± 13.31
- Accuracy, Autosampler at 4°C for 8 h (Spleen, 8 ng/mL): 93.42 ± 8.00
- Accuracy, Three freeze-thraw cycles (Spleen, 8 ng/mL): 96.13 ± 11.98
- Accuracy, −80°C for 30 days (Spleen, 8 ng/mL): 101.90 ± 10.25
- Accuracy, Ambient temperature for 4 h (Spleen, 140 ng/mL): 93.13 ± 6.10
- Accuracy, Autosampler at 4°C for 8 h (Spleen, 140 ng/mL): 95.27 ± 7.08
- Accuracy, Three freeze-thraw cycles (Spleen, 140 ng/mL): 89.18 ± 8.23
- Accuracy, −80°C for 30 days (Spleen, 140 ng/mL): 92.35 ± 2.70
- Accuracy, Ambient temperature for 4 h (Spleen, 2400 ng/mL): 103.33 ± 8.37
- Accuracy, Autosampler at 4°C for 8 h (Spleen, 2400 ng/mL): 105.67 ± 8.50
- Accuracy, Three freeze-thraw cycles (Spleen, 2400 ng/mL): 107.73 ± 8.10
- Accuracy, −80°C for 30 days (Spleen, 2400 ng/mL): 109.83 ± 4.96
- Accuracy, Ambient temperature for 4 h (Stomach, 5 ng/mL): 111.00 ± 7.90
- Accuracy, Autosampler at 4°C for 8 h (Stomach, 5 ng/mL): 112.17 ± 7.25
- Accuracy, Three freeze-thraw cycles (Stomach, 5 ng/mL): 113.12 ± 9.97
- Accuracy, −80°C for 30 days (Stomach, 5 ng/mL): 113.83 ± 2.99
- Accuracy, Ambient temperature for 4 h (Stomach, 8 ng/mL): 107.32 ± 12.96
- Accuracy, Autosampler at 4°C for 8 h (Stomach, 8 ng/mL): 98.37 ± 10.75
- Accuracy, Three freeze-thraw cycles (Stomach, 8 ng/mL): 105.90 ± 9.13
- Accuracy, −80°C for 30 days (Stomach, 8 ng/mL): 103.55 ± 9.49
- Accuracy, Ambient temperature for 4 h (Stomach, 140 ng/mL): 88.15 ± 7.91
- Accuracy, Autosampler at 4°C for 8 h (Stomach, 140 ng/mL): 86.38 ± 8.38
- Accuracy, Three freeze-thraw cycles (Stomach, 140 ng/mL): 87.12 ± 5.24
- Accuracy, −80°C for 30 days (Stomach, 140 ng/mL): 88.28 ± 6.31
- Accuracy, Ambient temperature for 4 h (Stomach, 2400 ng/mL): 100.53 ± 7.29
- Accuracy, Autosampler at 4°C for 8 h (Stomach, 2400 ng/mL): 99.52 ± 5.85
- Accuracy, Three freeze-thraw cycles (Stomach, 2400 ng/mL): 104.90 ± 5.53
- Accuracy, −80°C for 30 days (Stomach, 2400 ng/mL): 102.32 ± 8.22
